The numbers were not newly measured in patent US20260335339A1, “COMPOSITIONS FOR DERMAL/TRANSDERMAL DELIVERY AND COSMETIC USE” (YISSUM RESEARCH DEVELOPMENT COMPANY OF THE HEBREW …, priority 2022, published 2026), which cites them from elsewhere.

For this data set the following is noted: lipophilic fluorescent molecule.

As to `O=C1OC2(c3ccc(O)cc3Oc3cc(O)ccc32)c2ccc(N=C=S)cc21` [FITC, fluorescein isothiocyanate], the log p was 4.3.
